Assay results: paper PMC11161644, “An effective and rapidly degradable disinfectant from disinfection byproducts” (Nature Communications, 2024)
“And” between values parts separate entries of the source, which are not always exact repeats. Equal entries are not always repeated. Where two headings read alike, the source gives them in different places. Blank lines part the entries; values can stand above or below the compound they belong to.

What was measured:
[1] = Degradation in seawater in darkness (pH 6.2, 7.2, 8.2); conditions: for half-life at 10 mg L−1: pretreated seawater in darkness; for Ln (C/C0): seawater pH 8.2, darkness
Procedure, shortened: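 DBP spiked at 10 mg L^−1 into pretreated seawater in foil-wrapped quartz flasks, held at 20 °C in darkness for 0‒120 h with 4 mM phosphate buffer at pH 6.2, 7.2 or 8.2. Aliquots analysed by reversed-phase HPLC-UV (230 or 280 nm); duplicate runs.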

E. coli (ATCC 25922) = test: Inactivation of E. coli by disinfectants (membrane filter enumeration, contact time 5 min); format: cell-based, Escherichia coli; conditions: for log reduction at 200 µg/mL / EC (3-log inactivation) / log reduction at 1500 µg/mL: Escherichia coli, ATCC25922, 5 min; for log reduction at 200 µg/mL: dose 200 mg L-1; for log reduction at 200 µg/mL / log reduction at 1500 µg/mL: 5 min, read-out: Log (N/N0); for EC (3-log inactivation) / E. coli inactivation rate constant k: pH 7.2, contact time 5 min; for EC (3-log inactivation): read-out: Dose for achieving 3-log inactivation of E. coli; for log reduction at 1500 µg/mL: dose 1500 mg L-1
Procedure, shortened: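 E. coli ATCC 25922 (10^6‒10^7 cells/mL) exposed to a series of DBP doses in 10 mM PBS (pH 7.2; pH effect tested at 6.2, 7.2, 8.2) for 5 min at 22 ± 1 °C. Survivors enumerated by membrane filtration on m-FC medium at 45 °C for 24 h; inactivation relative to undisinfected control.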

S. aureus (ATCC 25923) = test: Inactivation of S. aureus (contact time 5 min); format: cell-based, Staphylococcus aureus; conditions: for log reduction at 300 µg/mL: Staphylococcus aureus, ATCC25923, 5 min, pH 7.2, S. aureus, dose 300 mg L-1, pH 7.2, contact time 5 min, read-out: Log (N/N0)
Procedure, shortened: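 Cells (10^6‒10^7 per mL) in 10 mM PBS pH 7.2 exposed to a series of DBP doses for 5 min at 22 ± 1 °C. Survivors enumerated by membrane filtration and colony counts after 24 h at 37 °C (S. aureus, Tryptone Soya; C. albicans, Sabouraud) relative to undisinfected control.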

P. dumerilii embryos = test: Developmental toxicity assay with P. dumerilii embryos, dilution factor of in-use concentration (EC50,DF), also after degradation in darkness; format: in vivo, Platynereis dumerilii; conditions: for Normal development: PCMX
Procedure, shortened: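 In-use DBP doses (3-log E. coli reduction, pH 7.2) were serially diluted onto embryos at 12 h postfertilization in seawater. Normal development to first larval stage was scored by microscopy at 24 h postfertilization, in duplicate. EC50,DF is the dilution factor giving 50% of control normal development.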

Structure (SMILES): Cc1cc(O)cc(C)c1Cl [PCMX, para-chloro-meta-xylenol, reference compound]
half-life at 10 mg L−1 [1]: ~240 days | Ln (C/C0) ([1]; 0 h): 0 | Degradation in 120 h ([1]; seawater, absence of sunlight): less than 5% | log reduction at 200 µg/mL (E. coli (ATCC 25922); pH 6.2, E. coli, pH 6.2): 4.19 | log reduction at 200 µg/mL (E. coli (ATCC 25922); pH 7.2, E. coli, pH 7.2): 3.54 | log reduction at 200 µg/mL (E. coli (ATCC 25922); pH 8.2, E. coli, pH 8.2): 5.56 | EC (3-log inactivation) (E. coli (ATCC 25922)): 188 µg/mL | E. coli inactivation rate constant k (E. coli (ATCC 25922)): 0.66 L mg‒1 h‒1 | log reduction at 300 µg/mL (S. aureus (ATCC 25923)): 3.04 | Dose for achieving 3-log inactivation of S. aureus (S. aureus (ATCC 25923); pH 7.2, contact time 5 min): 308 mg L−1 | S. aureus inactivation rate constant k (S. aureus (ATCC 25923); pH 7.2, contact time 5 min): 3670 µL/min/mg | Normal development (P. dumerilii embryos; degradation 0 h, dilution factor 6.7143): 0% | Normal development (P. dumerilii embryos; degradation 0 h, dilution factor 7.2308): 4.232% and 2.756% | Normal development (P. dumerilii embryos; degradation 0 h, dilution factor 7.6735): 25.4292% and 17.7492% | Normal development (P. dumerilii embryos; degradation 0 h, dilution factor 8.1739): 29.4152% and 29.5272% | Normal development (P. dumerilii embryos; degradation 0 h, dilution factor 8.7442): 46.2529% and 46.0367% | Normal development (P. dumerilii embryos; degradation 0 h, dilution factor 9.4): 56.894% and 62.197% | Normal development (P. dumerilii embryos; degradation 0 h, dilution factor 10.4444): 76.1488% and 70.708% | Normal development (P. dumerilii embryos; degradation 0 h, dilution factor 11.75): 84.2318% and 84.1758% | Normal development (P. dumerilii embryos; degradation 48 h, dilution factor 6.7143): 0% | Normal development (P. dumerilii embryos; degradation 48 h, dilution factor 7.2308): 0% | Normal development (P. dumerilii embryos; degradation 48 h, dilution factor 7.6735): 5.72% and 1.379% | Normal development (P. dumerilii embryos; degradation 48 h, dilution factor 8.1739): 20.3803% and 14.4749% | Normal development (P. dumerilii embryos; degradation 48 h, dilution factor 8.7442): 43.6056% and 44.3682% | Normal development (P. dumerilii embryos; degradation 48 h, dilution factor 9.4): 43.7739% and 49.5131% | Normal development (P. dumerilii embryos; degradation 48 h, dilution factor 10.4444): 54.207% and 47.1234% | Normal development (P. dumerilii embryos; degradation 48 h, dilution factor 11.75): 73.3565% and 68.3577% | Normal development (%) (P. dumerilii embryos; dilution factor 6.7143 of in-use concentration): 0% | Normal development (%) (P. dumerilii embryos; dilution factor 7.2308): 4.232% and 2.756% | Normal development (%) (P. dumerilii embryos; dilution factor 7.6735): 25.4292% and 17.7492% | Normal development (%) (P. dumerilii embryos; dilution factor 8.1739): 29.4152% and 29.5272% | Normal development (%) (P. dumerilii embryos; dilution factor 8.7442): 46.0367% and 46.2529% | Normal development (%) (P. dumerilii embryos; dilution factor 9.4): 62.197% and 56.894% | Normal development (%) (P. dumerilii embryos; dilution factor 10.4444): 76.1488% and 70.708% | Normal development (%) (P. dumerilii embryos; dilution factor 11.75): 84.2038%

Relative concentration remaining (1 at 0 min) ([1]; pH 6.2, degradation time 0 min): 1 | Relative concentration remaining (1 at 0 min) ([1]; pH 6.2, degradation time 15 min): 0.9903 and 1.013 | Relative concentration remaining (1 at 0 min) ([1]; pH 6.2, degradation time 30 min): 1.0399 and 0.9876 | Relative concentration remaining (1 at 0 min) ([1]; pH 6.2, degradation time 60 min): 1.018 and 0.9782 | Relative concentration remaining (1 at 0 min) ([1]; pH 6.2, degradation time 90 min): 1.002 and 0.9911 | Relative concentration remaining (1 at 0 min) ([1]; pH 6.2, degradation time 120 min): 0.974 and 0.967 | Relative concentration remaining (1 at 0 min) ([1]; pH 6.2, degradation time 180 min): 0.9787 and 0.9462 | Relative concentration remaining (1 at 0 min) ([1]; pH 6.2, degradation time 240 min): 0.9527 and 0.9358 | Relative concentration remaining (1 at 0 min) ([1]; pH 7.2, degradation time 0 min): 1 | Relative concentration remaining (1 at 0 min) ([1]; pH 7.2, degradation time 15 min): 1.006 and 0.9535 | Relative concentration remaining (1 at 0 min) ([1]; pH 7.2, degradation time 30 min): 0.9742 and 0.9233 | Relative concentration remaining (1 at 0 min) ([1]; pH 7.2, degradation time 45 min): 0.8634 and 0.8365 | Relative concentration remaining (1 at 0 min) ([1]; pH 7.2, degradation time 60 min): 0.7743 and 0.7531 | Relative concentration remaining (1 at 0 min) ([1]; pH 7.2, degradation time 90 min): 0.6443 and 0.5863 | Relative concentration remaining (1 at 0 min) ([1]; pH 7.2, degradation time 120 min): 0.5356 and 0.4974 | Relative concentration remaining (1 at 0 min) ([1]; pH 7.2, degradation time 180 min): 0.3959 and 0.345 | Relative concentration remaining (1 at 0 min) ([1]; pH 8.2, degradation time 0 min): 1 | Relative concentration remaining (1 at 0 min) ([1]; pH 8.2, degradation time 3 min): 0.7301 and 0.7188 | Relative concentration remaining (1 at 0 min) ([1]; pH 8.2, degradation time 8 min): 0.5509 and 0.4986 | Relative concentration remaining (1 at 0 min) ([1]; pH 8.2, degradation time 12 min): 0.3915 and 0.3688 | Relative concentration remaining (1 at 0 min) ([1]; pH 8.2, degradation time 16 min): 0.2832 and 0.2676 | Relative concentration remaining (1 at 0 min) ([1]; pH 8.2, degradation time 20 min): 0.2193 and 0.1797 | Relative concentration remaining (1 at 0 min) ([1]; pH 8.2, degradation time 25 min): 0.1418 and 0.1248 | half-life at 10 mg L−1 ([1]; pH 8.2): 0.00625 days | Ln (C/C0) ([1]; 0 min): 0
Structure (SMILES): Oc1cc(Br)c(O)cc1Br [2,5-DBHQ, 2,5-dibromohydroquinone]
log reduction at 1500 µg/mL (E. coli (ATCC 25922); pH 6.2, E. coli, pH 6.2): 1.35 | log reduction at 1500 µg/mL (E. coli (ATCC 25922); pH 7.2, E. coli, pH 7.2): 3.28 | log reduction at 1500 µg/mL (E. coli (ATCC 25922); pH 8.2, E. coli, pH 8.2): 3.84 | EC (3-log inactivation) (E. coli (ATCC 25922)): 1450 µg/mL | E. coli inactivation rate constant k (E. coli (ATCC 25922)): 0.03 L mg‒1 h‒1 | log reduction at 300 µg/mL (S. aureus (ATCC 25923)): 0.62 | Normal development (%) (P. dumerilii embryos; dilution factor 366.306): 0% | Normal development (%) (P. dumerilii embryos; dilution factor 439.567): 8.76% and 2.206% | Normal development (%) (P. dumerilii embryos; dilution factor 549.459): 13.3508% and 11.7022% | Normal development (%) (P. dumerilii embryos; dilution factor 732.612): 55.6452% and 53.271% | Normal development (%) (P. dumerilii embryos; dilution factor 1098.92): 74.7747% and 73.7705% | Normal development (%) (P. dumerilii embryos; dilution factor 2197.84): 91.7072% and 82.9908%
